Data as given in patent US20100197789A1, “ANTI-OBESITY AGENT AND USE THEREOF” (National University Corporation Nagoya University, priority 2006, published 2010).

Legend:
Type in all cases: in vivo, mouse
db/db mice = experiment: Food intake amount and body weight, 5 week-continuous oral administration in drinking water, db/db mice; conditions: for body weight increase / food intake amount: oral, 5 weeks
Method: (§1) 5 week-old male C57BL/KsJ-db/db mice (db/db mice: body weight 19 to 25 g, Japan SLC, Inc.) were purchased and individually fed in tip cages. For the db/db mice, normal pellet diet (CE-2) was administered under free water intake and free food intake. A body weight and a food intake amount over 24 hours were measured every day from the start of feeding. On day 3 after the start of feeding, blood was taken from an orbit after 6 hour-fasting and a blood glucose level and a blood insulin concentration were measured. The db/db mice were divided into three groups (10 mice per each group) so that a body weight, a 24 hour-food intake amount, a blood glucose level, and a blood insulin concentration were equal, and defined to be a control group, a low concentration baclofen treated group, and a high concentration baclofen treated group. After division into the groups, from day 5 after the start of feeding, (±)-baclofen was dissolved in drinking water and 5 week-continuous oral administration to the baclofen treated groups was started. (±)-baclofen was dissolved in drinking water at a concentration of 1.1 mg/dl in the low concentration treated group and at a concentration of 2.7 mg/dl in the high concentration treated group. A food intake amount and a body weight were measured over time during the period of 5 week-administration of (±)-baclofen, blood was taken after the end of the 5-week administration, and the db/db mice were sacrificed by cervical luxation. Brains, epididymal white adipose tissues, subcutaneous white adipose tissues and brown adipose tissues were surgically removed. The brains and brown adipose tissues were frozen in dry ice and liquid nitrogen immediately after the removal and then preserved at −80° C. The epididymal white adipose tissues and subcutaneous white adipose tissues were measured in weights, and then fixed in 4% formaldehyde and preserved at 4° C.
5 week-old male C57BL/KsJ-db/db mice (db/db mice: body weight 19 to 25 g, Japan SLC, Inc.) were purchased and individually fed in tip cages. For the db/db mice, normal pellet diet (CE-2) was administered under free water intake and free food intake. A body weight and a food intake amount over 24 hours were measured everyday from the start of feeding. On day 3 after the start of feeding, blood was taken from an orbit after 6 hour-fasting and a blood glucose level and a blood insulin concentration were measured. […] After division into the groups, from day 5 after the start of feeding, R-baclofen and S-baclofen were dissolved in drinking water and 5 week-continuous oral administration was started. […] A food intake amount and a body weight were measured over time, and a rectal temperature was measured 5 weeks after the start of the administration. Blood was taken after the 5-week administration of baclofen, and the db/db mice were sacrificed by cervical luxation.
5 week-old male C57BL/KsJ-db/db mice (db/db mice: body weight 19 to 25 g, Japan SLC, Inc.) were purchased and individually fed in tip cages. Normal pellet diet (CE-2) was administered to the db/db mice under free water intake and free food intake. A body weight and a food intake amount over 24 hours were measured every day from the start of feeding. On day 3 after the start of feeding, blood was taken from an orbit after 6 hour-fasting, and a blood glucose level and a blood insulin concentration were measured. The db/db mice were divided into five groups (10 mice per each group) so that a body weight, a 24 hour-food intake amount, a blood glucose level, and a blood insulin concentration were equal, and defined to be a control group and baclofen treated groups. (±)-baclofen was dissolved in drinking water at respective concentrations of 4×10^−6 M, 10×10^−6 M, 40×10^−6 M, and 100×10^−6 M, and continuously orally administered to the baclofen treated groups for 5 weeks. A food intake amount, a body weight and a water-drinking amount were measured over time during the period of 5 week-administration of (±)-baclofen. […]

UCP1 mRNA = experiment: Real time PCR, UCP1 mRNA in brown adipose tissues, db/db mice; conditions: after 5 week-administration, 1.1 and 2.7 mg/dl in drinking water
Method: 5 week-old male C57BL/KsJ-db/db mice (db/db mice: body weight 19 to 25 g, Japan SLC, Inc.) were purchased and individually fed in tip cages. For the db/db mice, normal pellet diet (CE-2) was administered under free water intake and free food intake. A body weight and a food intake amount over 24 hours were measured every day from the start of feeding. On day 3 after the start of feeding, blood was taken from an orbit after 6 hour-fasting and a blood glucose level and a blood insulin concentration were measured. […] A food intake amount and a body weight were measured over time during the period of 5 week-administration of (±)-baclofen, blood was taken after the end of the 5-week administration, and the db/db mice were sacrificed by cervical luxation. […] The epididymal white adipose tissues and subcutaneous white adipose tissues were measured in weights, and then fixed in 4% formaldehyde and preserved at 4° C.
RNA was taken out from the brown adipose tissues preserved at −80° C., and expression of a UCP-1 mRNA was examined in the real time quantitative […] method by using ABI PRISM (registered trademark) 7700 Sequence Detection System.

NPY mRNA = experiment: In situ hybridization, NPY mRNA in hypothalamic arcuate nucleus, db/db mice; conditions: after 5 weeks, 1.1 and 2.7 mg/dl in drinking water, NIH image quantitation
Method: as §1, with “After division into the groups, from day 5 after the start of feeding, (±)-baclofen was dissolved in drinking water and 5 week-continuous oral administration to the baclofen treated groups was started. (±)-baclofen was dissolved in drinking water at a concentration of 1.1 mg/dl in the low concentration treated group and at a concentration of 2.7 mg/dl in the high concentration treated group.” left out, “Brains, epididymal white adipose tissues, subcutaneous white adipose tissues and brown adipose tissues were surgically removed. The brains and brown adipose tissues were frozen in dry ice and liquid nitrogen immediately after the removal and then preserved at −80° C.” left out, “C. […]” for “C.”

[1] = (±)-baclofen 1.1 mg/dl (low) and 2.7 mg/dl (high) in drinking water, vs control
[2] = (±)-baclofen 1.1 and 2.7 mg/dl in drinking water, continued until end of experiment
[3] = (±)-baclofen 4×10^−6 M in drinking water (roughly 0.2 mg/kg/day)
[4] = (±)-baclofen 10×10^−6 M in drinking water (roughly 0.5 mg/kg/day)
[5] = (±)-baclofen 40×10^−6 M in drinking water (roughly 2 mg/kg/day)
[6] = (±)-baclofen 100×10^−6 M in drinking water (roughly 5 mg/kg/day)

**Q.** What does the source list for `NCC(CC(=O)O)c1ccc(Cl)cc1` (racemic) [(±)-baclofen, (RS)-4-amino-3-(4-chlorophenyl)butanoic acid]?
**A.** body weight increase (db/db mice; [1]): significant body weight increase suppression; food intake amount (db/db mice; [1]): significantly suppressed; time after start of administration from which body weight increase suppression was significant (db/db mice; [2]): 1 week; time after start of administration from which food intake suppression was significant (db/db mice; [2]): 1 week; time after start of administration from which body weight increase suppression was significant (db/db mice; [3]): 4 weeks; time after start of administration from which food intake suppression was significant (db/db mice; [3]): 4 weeks; body weight increase (db/db mice; [3]): Significant suppression; food intake amount (db/db mice; [3]): Significant suppression; time after start of administration from which body weight increase suppression was significant (db/db mice; [4]): 2 weeks; time after start of administration from which food intake suppression was significant (db/db mice; [4]): 2 weeks; body weight increase (db/db mice; [4]): Significant suppression; food intake amount (db/db mice; [4]): Significant suppression; time after start of administration from which body weight increase suppression was significant (db/db mice; [5]): 1 week; time after start of administration from which food intake suppression was significant (db/db mice; [5]): 1 week; body weight increase (db/db mice; [5]): significantly suppressed; food intake amount (db/db mice; [5]): significantly suppressed; time after start of administration from which body weight increase suppression was significant (db/db mice; [6]): 1 week; time after start of administration from which food intake suppression was significant (db/db mice; [6]): 1 week; body weight increase (db/db mice; [6]): significantly suppressed; food intake amount (db/db mice; [6]): significantly suppressed; UCP1 mRNA expression in brown adipose tissues (UCP1 mRNA): Significant increases; expression of NPY mRNA in the hypothalamic arcuate nucleus (NPY mRNA): significantly suppressed
